Each block holds one compound with its values, some of them ahead of it.
Assays:
[1] = pH stability of pantethine-4′,4″-diphosphate, pantethine-4′-phosphate and pantethine (Example 2); assay type: physicochemical; details: pH 4 or lower, or pH 7 or higher; 0.1% (w/v) in 50 mM buffer, 40° C. for 3 months; diphosphate tested as sodium salt
[2] = tested on: LabCyte MELANO-MODEL, human skin three-dimensional model containing melanocytes; experiment: Melanin production inhibition test in human skin three-dimensional model; assay type: cell-based; details: for IC50: read-out: concentration at which melanin production inhibition rate reaches 50%, from plots in FIG. 5, kojic acid 0.1% = 100% inhibition, PBS = 0%
Experimental: The culture medium and the applied sample solution were exchanged every 2 or 3 days. After the completion of the culture, the percentage of viable cells was measured by an MTT (methylthiazole tetrazolium) assay. Further, a melanin amount was measured.
Melanin amount: The skin cells after the MTT assay were immersed in a reagent obtained by dissolving 1% SDS, 0.05 mM EDTA, and a 10 mM tris-HCl buffer solution (pH 7.2). 3 μL of a 5 mg/mL Proteinase K was added and the solution was heated in a water bath at 45° C. overnight to dissolve the skin. A 30% hydrogen peroxide solution and a 500 mM sodium carbonate solution were added thereto, the solution was mixed well and heated in a water bath at 80° C. for 30 min, and impurities were removed by chloroform/methanol (2/1). At the same time, melanin solutions were prepared by similar operations to prepare a calibration curve, and a melanin amount in the cultured skin cells was determined.

[3] = Stability of pantetheine-4′-phosphate, pantetheine and pantethine (Example 4); details: 40° C. for 1 month; for amount of disulfide produced from the compound: alkaline condition (pH 8 and pH 9.5)
Experimental: Fifty mM sodium citrate buffer solutions (pH 3, 4, 5, and 6), a 50 mM sodium phosphate buffer solution (pH 7), and 50 mM tris-HCl buffer solutions (pH 8, 9.5) containing 0.1% (w/v) of pantetheine-4′-phosphate were prepared. Each 0.4 mL of the solutions was encapsulated in a 1 mL-glass ampule and heated at 40° C. for 1 month. Samples before and after the heating were analyzed by an HPLC to measure the content of pantetheine-4′-phosphate.

[4] = pH stability of barium pantethine-4′,4″-diphosphate, pantethine and calcium pantetheine-5-sulfonate (Example 1); details: 0.1% (w/v) in 50 mM buffer, 40° C. for 6 months, diphosphate tested as barium salt
Excerpt: Sodium citrate buffer solutions were used as buffer solutions at pH 3, 4, 5 and 6. Sodium phosphate buffer solutions were used as buffer solutions at pH 6.5 and 7. Tris-HCl buffer solutions were used as buffer solutions at pH 8 and 9.5.

[5] = ratio of 50% inhibition concentrations

Compound: CC(C)(COP(=O)(O)O)[C@@H](O)C(=O)NCCC(=O)NCCSSCCNC(=O)CCNC(=O)[C@H](O)C(C)(C)COP(=O)(O)O [Pantethine-4′,4″-diphosphate, pantethine-4′,4″-diphosphate]
stability (content by HPLC before and after heating) [1]: stable

Compound: O=c1cc(CO)occ1O [kojic acid]
melanin production amount, relative to the case where only PBS was added ([2]; 0.1% (7 mM), culture for 2 weeks): 30%

Compound: CC(C)(CO)[C@@H](O)C(=O)NCCC(=O)NCCS [pantetheine]
amount of disulfide produced from the compound [3]: decrease in the amount of pantethine produced

Compound: CC(C)(CO)[C@@H](O)C(=O)NCCC(=O)NCCSS(=O)(=O)[O-].CC(C)(CO)[C@@H](O)C(=O)NCCC(=O)NCCSS(=O)(=O)[O-].[Ca+2] [calcium pantetheine-5-sulfonate]
stability (content by HPLC before and after heating) ([4]; between pH 5 and 6): stable
stability (content by HPLC before and after heating) ([4]; pH 4 or lower, or pH 6.5 or higher): clearly degraded

The next lines start with results.

IC50 ([2]; culture for 2 weeks): 3.1 mM
Compound: sodium pantethine-4′,4″-diphosphate
whitening activity relative to pantethine [2, 5]: 1.7 fold
whitening activity relative to sodium ascorbyl-2-phosphate [2, 5]: 17 times

IC50 ([2]; culture for 2 weeks): 54 mM
Compound: O=C1O[C@H]([C@@H](O)CO)C(O)=C1OP(=O)(O)O [sodium ascorbyl-2-phosphate]

IC50 ([2]; culture for 2 weeks): 77 mM
Compound: pantethine-4′,4″-di-β-galactoside

amount of disulfide produced from the compound [3]: did not decrease
stability (content by HPLC before and after heating) ([3]; pH 3 and 4, 0.1% (w/v) in 50 mM buffer): improved from pantetheine
Compound: CC(C)(COP(=O)(O)O)[C@@H](O)C(=O)NCCC(=O)NCCS [pantetheine-4′-phosphate]
stability: oxidation to the disulfide ([3]; pH 5 or higher, 0.1% (w/v) in 50 mM buffer): oxidized and changed to pantethine-4′,4″-diphosphate
stability: remaining compound ([3]; pH 7 or higher, 0.1% (w/v) in 50 mM buffer): neither the pantetheine-4′-phosphate nor pantetheine remained

Source: patent publication US20120189566A1 (DAIICHI FINE CHEMICAL CO., LTD., priority 2009, published 2012)
